In the assay the target is PI3Kβ (Homo sapiens (Human), UniProt P42338). Nature of the assay: PI3K isoform TR-FRET enzymatic assay (PI3Kβ). Format: biochemical. Particulars: 2× Km ATP, 30 minutes at 25° C. In short, it runs like this:
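IC50 came from four-parameter dose-response fits, normalized between DMSO and 1 μM wortmannin controls. The read-out was TR-FRET (615/665 nm) of PIP3 displacing fluorescent PIP3 from Europium GRP-1 after 10 mM EDTA termination. Compounds were incubated with purified heterodimeric PI3Kβ for 30 min at 25° C.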
On the technique in general: In TR-FRET formats the signal depends on donor and acceptor labels being close together.

Chain of PI3Kβ (P42338 whole entry, canonical isoform): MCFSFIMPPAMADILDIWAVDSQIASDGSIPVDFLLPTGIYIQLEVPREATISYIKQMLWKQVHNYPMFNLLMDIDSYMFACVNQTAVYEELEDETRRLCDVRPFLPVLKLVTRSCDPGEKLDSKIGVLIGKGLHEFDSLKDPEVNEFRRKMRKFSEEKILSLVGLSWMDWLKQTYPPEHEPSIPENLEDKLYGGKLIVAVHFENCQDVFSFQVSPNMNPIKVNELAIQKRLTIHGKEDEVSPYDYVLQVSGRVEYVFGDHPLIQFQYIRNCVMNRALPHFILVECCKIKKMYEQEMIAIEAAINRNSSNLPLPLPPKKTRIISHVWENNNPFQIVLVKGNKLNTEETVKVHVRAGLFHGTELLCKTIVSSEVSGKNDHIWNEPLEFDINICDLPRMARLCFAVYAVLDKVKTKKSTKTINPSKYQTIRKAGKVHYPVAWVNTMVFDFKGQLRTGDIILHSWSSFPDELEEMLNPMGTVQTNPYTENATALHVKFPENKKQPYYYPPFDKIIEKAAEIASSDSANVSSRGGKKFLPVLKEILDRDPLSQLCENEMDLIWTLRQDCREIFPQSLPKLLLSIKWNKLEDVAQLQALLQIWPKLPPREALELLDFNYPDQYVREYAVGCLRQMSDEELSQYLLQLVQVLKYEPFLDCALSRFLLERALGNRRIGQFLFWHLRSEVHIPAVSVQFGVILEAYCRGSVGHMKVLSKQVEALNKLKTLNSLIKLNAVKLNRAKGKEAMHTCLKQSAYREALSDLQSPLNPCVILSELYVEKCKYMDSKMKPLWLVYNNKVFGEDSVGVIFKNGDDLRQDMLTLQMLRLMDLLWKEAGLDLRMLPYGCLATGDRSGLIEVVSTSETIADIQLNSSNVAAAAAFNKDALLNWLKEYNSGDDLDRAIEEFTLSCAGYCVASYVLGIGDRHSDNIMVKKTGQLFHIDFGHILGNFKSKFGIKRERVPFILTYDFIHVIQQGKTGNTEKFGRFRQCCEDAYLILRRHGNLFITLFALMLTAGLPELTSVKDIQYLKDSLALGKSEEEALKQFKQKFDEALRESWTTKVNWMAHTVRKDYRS
Chain of PI3Kβ (P27986 whole entry partner, canonical isoform): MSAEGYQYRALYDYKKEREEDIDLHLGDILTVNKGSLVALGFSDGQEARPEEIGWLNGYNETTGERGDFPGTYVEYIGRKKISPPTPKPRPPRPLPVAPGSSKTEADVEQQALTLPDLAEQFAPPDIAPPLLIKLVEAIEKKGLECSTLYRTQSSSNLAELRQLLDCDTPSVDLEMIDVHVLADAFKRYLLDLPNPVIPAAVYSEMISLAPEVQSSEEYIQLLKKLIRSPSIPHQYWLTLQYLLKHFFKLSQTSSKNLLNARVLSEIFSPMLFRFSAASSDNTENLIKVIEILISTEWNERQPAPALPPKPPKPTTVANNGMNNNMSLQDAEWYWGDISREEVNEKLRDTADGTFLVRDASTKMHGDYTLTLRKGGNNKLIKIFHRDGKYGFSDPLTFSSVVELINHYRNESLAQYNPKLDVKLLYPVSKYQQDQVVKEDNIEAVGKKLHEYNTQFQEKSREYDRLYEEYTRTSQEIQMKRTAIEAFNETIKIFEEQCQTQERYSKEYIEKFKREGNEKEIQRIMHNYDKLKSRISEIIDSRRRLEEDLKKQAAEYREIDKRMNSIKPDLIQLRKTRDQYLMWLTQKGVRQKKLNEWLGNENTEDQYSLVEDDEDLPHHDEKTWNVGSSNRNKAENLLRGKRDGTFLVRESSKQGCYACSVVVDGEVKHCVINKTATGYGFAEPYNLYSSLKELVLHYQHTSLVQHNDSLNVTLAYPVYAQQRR

For orientation: IC50 means the midpoint of a concentration-inhibition curve. Read a low IC50 as greater potency in that assay. Turning to `CCCc1nc2c(-c3nnc(C)[nH]3)cc(N3CCOCC3)cc2n1-c1ccnc2c(Cl)ccc(F)c12` [Example 11, 4-(1-(8-chloro-5-fluoroquinolin-4-yl)-4-(5-methyl-4H-1,2,4-triazol-3-yl)-2-propyl-1H-benzo[d]imidazol-6-yl)morpholine], the IC50 amounted to 42 nM.

For `Cc1nc2c(-c3nnc[nH]3)cc(N3CCOCC3)cc2n1-c1c(Cl)cnc2c(F)cccc12` [Example 27, 4-[3-(3-chloro-8-fluoroquinolin-4-yl)-2-methyl-7-(4H-1,2,4-triazol-3-yl)benzimidazol-5-yl]morpholine], the IC50 came out at 56 nM.

`Clc1cccc2c(-n3c(C4CC4)nc4c(-c5ncco5)cc(N5CCOCC5)cc43)ccnc12` [Example 228, 4-[3-(8-chloroquinolin-4-yl)-2-cyclopropyl-7-(1,3-oxazol-2-yl)benzimidazol-5-yl]morpholine] registered an IC50 of 10 nM.

On to `Cc1cc(-n2c(C)nc3c(-c4cnc[nH]4)cc(N4CCOCC4)cc32)c2c(Cl)ccc(Cl)c2n1` [Example 333, 4-[3-(5,8-dichloro-2-methylquinolin-4-yl)-7-(1H-imidazol-5-yl)-2-methylbenzimidazol-5-yl]morpholine], for which the half-maximal inhibitory concentration (IC50) stood at 9 nM. This IC50 and that of the molecule before are within 1.5-fold of each other.

`Cc1nc2c(-c3cnc(Cl)[nH]3)cc(N3CCOCC3)cc2n1-c1ccnc2c(Cl)cc(F)cc12` [Example 289, 4-[3-(8-chloro-6-fluoroquinolin-4-yl)-7-(2-chloro-1H-imidazol-5-yl)-2-methylbenzimidazol-5-yl]morpholine] yielded an IC50 of 24 nM.

In turn, `Fc1cccc2c(-n3c(C4CC4)nc4c(-c5nnc[nH]5)cc(N5CCOCC5)cc43)ccnc12` [Example 144, 4-[2-cyclopropyl-3-(8-fluoroquinolin-4-yl)-7-(4H-1,2,4-triazol-3-yl)benzimidazol-5-yl]morpholine] showed a concentration for half-maximal inhibition (IC50) of 65 nM.

For the molecule `Cc1nc2c(-c3cncnc3)cc(N3CCOCC3)cc2n1-c1ccnc2c(Cl)cccc12` [Example 315, 4-(1-(8-chloroquinolin-4-yl)-2-methyl-4-(pyrimidin-5-yl)-1H-benzo[d]imidazol-6-yl)morpholine], the midpoint of inhibition, the IC50, lay at 490 nM.

Turning to `Cc1cnc2c(C#N)cccc2c1-n1c(C)nc2c(-c3nnc[nH]3)cc(N3CCOCC3)cc21` [Example 156, 3-methyl-4-(2-methyl-6-morpholino-4-(4H-1,2,4-triazol-3-yl)-1H-benzo[d]imidazol-1-yl)quinoline-8-carbonitrile], half-maximal inhibition (IC50) was put at 20 nM.

In turn, `Cc1nc2c(-c3cnn[nH]3)cc(N3CCOCC3)cc2n1-c1ccnc2c(Cl)cccc12` [Example 329, 4-(1-(8-chloroquinolin-4-yl)-2-methyl-4-(1H-1,2,3-triazol-5-yl)-1H-benzo[d]imidazol-6-yl)morpholine] displayed a concentration for half-maximal inhibition (IC50) of 7 nM.

In turn, `Clc1cccc2c(-n3c(-c4cncs4)nc4c(-c5nnc[nH]5)cc(N5CCOCC5)cc43)ccnc12` [Example 119, 4-[3-(8-chloroquinolin-4-yl)-2-(1,3-thiazol-5-yl)-7-(4H-1,2,4-triazol-3-yl)benzimidazol-5-yl]morpholine] gave a 50% inhibitory concentration (IC50) of 24 nM.

The molecule `Clc1cccc2c(-n3c(C4CCOC4)nc4c(-c5nnc[nH]5)cc(N5CCOCC5)cc43)ccnc12` (centres unmarked) [Example 9, 4-(1-(8-chloroquinolin-4-yl)-2-(tetrahydrofuran-3-yl)-4-(4H-1,2,4-triazol-3-yl)-1H-benzo[d]imidazol-6-yl)morpholine] showed an IC50 of 33 nM.

In turn, `Cc1ncc(-c2cc(N3CCOCC3)cc3c2nc(C)n3-c2ccnc3c(Cl)cccc23)[nH]1` [Example 201, 4-[3-(8-chloroquinolin-4-yl)-2-methyl-7-(2-methyl-1H-imidazol-5-yl)benzimidazol-5-yl]morpholine] returned a 50% inhibitory concentration (IC50) of 19 nM.

In turn, `CCCc1nc2c(-c3ncco3)cc(N3CCOCC3)cc2n1-c1ccnc2c(Cl)cccc12` [Example 227, 4-[3-(8-chloroquinolin-4-yl)-7-(1,3-oxazol-2-yl)-2-propylbenzimidazol-5-yl]morpholine] showed an IC50 of 10 nM.

`Cc1cc(-n2c(C)nc3c(-c4nnn[nH]4)cc(N4CCOCC4)cc32)c2ccccc2n1` [Example 160, 4-(2-methyl-1-(2-methylquinolin-4-yl)-4-(1H-tetrazol-5-yl)-1H-benzo[d]imidazol-6-yl)morpholine] registered a half-inhibitory concentration (IC50) of 470 nM. Against the preceding molecule, the IC50 is about 47-fold higher.

Consider `CCc1c(C)nc2ccccc2c1-n1c(C)nc2c(-c3nnc[nH]3)cc(N3CCOCC3)cc21` [Example 62, 4-[3-(3-ethyl-2-methylquinolin-4-yl)-2-methyl-7-(4H-1,2,4-triazol-3-yl)benzimidazol-5-yl]morpholine], for which the 50% inhibitory concentration (IC50) was 23 nM.

In the case of `Cc1nc2c(-c3nnc[nH]3)cc(N3CCOCC3)cc2n1-c1ccnc2c(C#N)cccc12` [Example 89, 4-[2-methyl-6-morpholin-4-yl-4-(4H-1,2,4-triazol-3-yl)benzimidazol-1-yl]quinoline-8-carbonitrile], inhibition was half-maximal at 12 nM (IC50).

`Fc1ccc(F)c2c(-n3c(C4CC4)nc4c(-c5ncco5)cc(N5CCOCC5)cc43)ccnc12` [Example 231, 4-[2-cyclopropyl-3-(5,8-difluoroquinolin-4-yl)-7-(1,3-oxazol-2-yl)benzimidazol-5-yl]morpholine] showed a half-maximal inhibitory concentration (IC50) of 16 nM.

`Cc1nnc(-c2cc(N3CCOCC3)cc3c2nc(C)n3-c2ccnc3c(F)ccc(F)c23)[nH]1` [Example 51, 4-(1-(5,8-difluoroquinolin-4-yl)-2-methyl-4-(5-methyl-4H-1,2,4-triazol-3-yl)-1H-benzo[d]imidazol-6-yl)morpholine] gave an IC50 of 15 nM.

Regarding `Clc1cccc2c(-n3c(C4CC4)nc4c(-c5cnn[nH]5)cc(N5CCOCC5)cc43)ccnc12` [Example 378, 4-(1-(8-chloroquinolin-4-yl)-2-cyclopropyl-4-(1H-1,2,3-triazol-5-yl)-1H-benzo[d]imidazol-6-yl)morpholine], the 50% inhibitory concentration (IC50) was 27 nM.

With `Fc1cccc2c(-n3c(CC4CC4)nc4c(-c5ncco5)cc(N5CCOCC5)cc43)ccnc12` [Example 225, 4-[2-(cyclopropylmethyl)-3-(8-fluoroquinolin-4-yl)-7-(1,3-oxazol-2-yl)benzimidazol-5-yl]morpholine], the IC50 amounted to 18 nM.

As for `Cc1nnc(-c2cc(N3CCOCC3)cc3c2ncn3-c2ccnc3c(Cl)cccc23)[nH]1` [Example 134, 4-[3-(8-chloroquinolin-4-yl)-7-(5-methyl-4H-1,2,4-triazol-3-yl)benzimidazol-5-yl]morpholine], the IC50 amounted to 16 nM.

`Cc1csc(-c2cc(N3CCOCC3)cc3c2nc(C2CC2)n3-c2ccnc3c(Cl)ccc(F)c23)n1` [Example 243, 4-[3-(8-chloro-5-fluoroquinolin-4-yl)-2-cyclopropyl-7-(4-methyl-1,3-thiazol-2-yl)benzimidazol-5-yl]morpholine]: the 50% inhibitory concentration (IC50) came to 26 nM.

Turning to `CC1(c2nc3c(-c4nnc[nH]4)cc(N4CCOCC4)cc3n2-c2ccnc3c(Cl)cccc23)CC1` [Example 4, 4-(1-(8-chloroquinolin-4-yl)-2-(1-methylcyclopropyl)-4-(4H-1,2,4-triazol-3-yl)-1H-benzo[d]imidazol-6-yl)morpholine], inhibition was half-maximal at 28 nM (IC50).

`Cc1nc2c(-c3nnc[nH]3)cc(N3CCOCC3)cc2n1-c1cc(-c2cn[nH]c2)nc2ccccc12` [Example 167, 4-(1-(2-(1H-pyrazol-4-yl)quinolin-4-yl)-2-methyl-4-(4H-1,2,4-triazol-3-yl)-1H-benzo[d]imidazol-6-yl)morpholine 2,2,2-trifluoroacetate] showed an IC50 of 12 nM.

The molecule `Cc1nnc(-c2cc(N3CCOCC3)cc3c2ncn3-c2ccnc3c(Cl)c(F)ccc23)[nH]1` [Example 40, 4-(1-(8-chloro-7-fluoroquinolin-4-yl)-4-(5-methyl-4H-1,2,4-triazol-3-yl)-1H-benzo[d]imidazol-6-yl)morpholine] registered a 50% inhibitory concentration (IC50) of 22 nM. Compared with the last molecule, the IC50 is about 1.8-fold higher.

The molecule `Cc1nc2c(-c3nnc[nH]3)cc(N3CCOCC3)cc2n1-c1ccnc2c(F)cccc12` [Example 140, 4-[3-(8-fluoroquinolin-4-yl)-2-methyl-7-(4H-1,2,4-triazol-3-yl)benzimidazol-5-yl]morpholine] gave a 50% inhibitory concentration (IC50) of 13 nM.

`Cc1nnc(-c2cc(N3CCOCC3)cc3c2nc(-c2ccncc2)n3-c2ccnc3c(Cl)cccc23)[nH]1` [Example 25, 4-(1-(8-chloroquinolin-4-yl)-4-(5-methyl-4H-1,2,4-triazol-3-yl)-2-(pyridin-4-yl)-1H-benzo[d]imidazol-6-yl)morpholine] gave an IC50 of 2200 nM. Against the preceding molecule, the IC50 is about 170-fold higher.

As to `Cc1nc2c(-c3nnc[nH]3)cc(N3CCOCC3)cc2n1-c1ccnc2cc(F)cc(F)c12` [Example 131, 4-[3-(5,7-difluoroquinolin-4-yl)-2-methyl-7-(4H-1,2,4-triazol-3-yl)benzimidazol-5-yl]morpholine], the IC50 came to 46 nM.

In the case of `Cc1nc2c(-c3cnc(Cl)[nH]3)cc(N3CCOCC3)cc2n1-c1ccnc2c(F)ccc(F)c12` (atropisomer, axis not shown) [Compound 373, 4-(4-(2-chloro-1H-imidazol-5-yl)-1-(5,8-difluoroquinolin-4-yl)-2-methyl-1H-benzo[d]imidazol-6-yl)morpholine], the IC50 turned out to be 1000 nM. Against the preceding molecule, the IC50 is about 22-fold higher.

As to `CCc1nc2c(-c3nnc[nH]3)cc(N3CCOCC3)cc2n1-c1ccnc2ccccc12` [Example 107, 4-[2-ethyl-3-quinolin-4-yl-7-(4H-1,2,4-triazol-3-yl)benzimidazol-5-yl]morpholine], the IC50 amounted to 29 nM.

In turn, `Clc1cccc2c(-n3c(C4CCCO4)nc4c(-c5nnc[nH]5)cc(N5CCOCC5)cc43)ccnc12` (centres unmarked) [Example 102, 4-[3-(8-chloroquinolin-4-yl)-2-(oxolan-2-yl)-7-(4H-1,2,4-triazol-3-yl)benzimidazol-5-yl]morpholine] showed an IC50 of 21 nM.

Regarding `Clc1cccc2c(-n3c(-c4ccncc4)nc4c(-c5nnc[nH]5)cc(N5CCOCC5)cc43)ccnc12` [Example 15, 4-(1-(8-chloroquinolin-4-yl)-2-(pyridin-4-yl)-4-(4H-1,2,4-triazol-3-yl)-1H-benzo[d]imidazol-6-yl)morpholine], the IC50 is 49 nM.

The values above are taken from US10214519B2, “Phosphatidylinositol 3-kinase inhibitors” (Gilead Sciences, Inc., priority 2016, dated 2019).
